Results: ChEMBL document CHEMBL5113453, “Design, synthesis, and biological evaluation of a new series of pyrazole derivatives: Discovery of potent and selective JNK3 kinase inhibitors” (Bioorg Med Chem, 2022)

What was measured:
RPMI-8226 [1] = experiment: Induction of necrosis in human RPMI-8226 cells assessed as LDH release at 6.12 uM; type: functional
RPMI-8226 [2] = experiment: Induction of apoptosis in human RPMI-8226 cells assessed as fold increase in caspase-3/7 activity at 0.87 uM; type: functional

Structure (SMILES) | Activity (RPMI-8226 [1]) [%] | fold change (FC) (RPMI-8226 [2])
O=C(NCCCNc1cc(-c2cn(-c3ccccc3)nc2-c2cccc(O)c2)ccn1)Nc1cccc(C(F)(F)F)c1 | 34.5 | –
O=C(NCCCNc1cc(-c2cn(-c3ccccc3)nc2-c2cccc(O)c2)ccn1)Nc1ccc(F)cc1 | – | 1.84
